Measurements: PubChem BioAssay (NCI)
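Briefly, cells in 96-well plates were exposed to five compound concentrations for 48 h, and endpoints were estimated by linear interpolation. The concentration for 50% growth inhibition is given as GI50. TGI is the concentration that stops growth completely.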

Key:
Test in all cases: growth of human tumour cells (NCI), 48 h
[1] = tested on: A498 renal
[2] = tested on: CCRF-CEM leukemia
[3] = tested on: DU-145 prostate
[4] = tested on: HS 578T breast
[5] = tested on: OVCAR-5 ovarian
[6] = tested on: OVCAR-8 ovarian
[7] = tested on: SF-295 CNS
[8] = tested on: SK-MEL-2 melanoma
[9] = tested on: SN12C renal
[10] = tested on: T-47D breast

SMILES	GI50 [1] [µM]	TGI [1] [µM]	GI50 [2] [µM]	TGI [2] [µM]	GI50 [3] [µM]	TGI [3] [µM]	GI50 [4] [µM]	TGI [4] [µM]	GI50 [5] [µM]	TGI [5] [µM]	GI50 [6] [µM]	TGI [6] [µM]	GI50 [7] [µM]	TGI [7] [µM]	GI50 [8] [µM]	TGI [8] [µM]	GI50 [9] [µM]	TGI [9] [µM]	GI50 [10] [µM]	TGI [10] [µM]
O=C1/C(=C/c2ccccc2Br)COc2ccc(O)c(O)c21	1.97	3.69	0.311	1.55	1.49	3.23	3.28	21.5	2.15	4.39	1.31	12.2	2.96	8.04	1.97	4.82	0.937	3.62	2.25	11.4
CN(C1=NS(=O)(=O)N=C(N(C)c2ccccc2)O1)c1ccccc1		42.1		> 100		61.7		69.9		47		33.3		57.7		38		41.2		45.5
COc1cc(C)[nH]c(=O)c1CN1CCc2c(Cl)cc([C@H](OC)C3COC3)c(Cl)c2C1=O	> 100	> 100	> 100	> 100	> 100	> 100	> 100	> 100	> 100	> 100	> 100	> 100	> 100	> 100	> 100	> 100	> 100	> 100	55.4	> 100
O=C1CC2C(=O)C1C(C(=O)O)C2C(=O)O (stereo not given)		> 100		> 100		> 100		> 100		> 100		> 100		> 100		> 100		> 100		> 100
COc1ccc(-c2nc(N)c3ncn(C4OC(CO)C(O)C4O)c3n2)cc1 (stereo not given)		> 100		> 100		> 100		> 100		> 100		> 100		> 100		> 100		> 100		> 100
CCCCNC(=O)Oc1ccc2c(=O)c3sc4c(=O)c5ccccc5c(=O)c4c3c(=O)c2c1	1.04	2.22	2	6.83	0.158	0.294	0.279	0.86	2.02	4.55	1.44	4.76	0.176	0.373	1.37	3.3	0.174	0.35	2.11	5.4
N#C/C(=C/C=C/c1ccccc1)S(=O)c1ccccc1 (stereo not given)	1.61	3.13	0.341	1.59	0.316	1.2	2.95	39.8	0.3	1.07	0.338	1.73	1.44	3.14	2.09	5.62	0.373	1.63	0.298	5.62
O=S(=O)(NCCCNc1cc(-c2cn(-c3ccccc3)nc2-c2cccc(O)c2)ccn1)c1cccc2ccccc12	1.09	6.62	3.12	> 100	4	> 100	1.42	8.39	8.43	> 100	5.46	> 100	1.64	4.32	2.45	6.25	4.8	> 100	2.14	8.53
COc1c(B(O)O)cccc1-c1nc2c(F)cc3[nH]ncc3c2c2c1CCCC2	0.172	3.31	0.633	6.92	2.18	26.9	0.0716	20.8	2.65	56.8	2.03	> 100	2.23	12.8	2.42	6.8	1.24	45	2.56	22.2
